{
  "source": "paper PMC10718593",
  "about": "“Rational design, synthesis, molecular modeling, biological activity, and mechanism of action of polypharmacological norfloxacin hydroxamic acid derivatives” (RSC Medicinal Chemistry, 2023)",
  "test_system": "E. coli",
  "test": "microbe, parasite or virus in culture",
  "set-up": "Minimal inhibitory concentration, bacterial growth inhibition",
  "settings": "Escherichia coli",
  "protocol": "Minimal inhibitory concentrations (MICs) were determined against a panel of test strains comprising Gram-negative, Gram-positive, and mycobacteria, including a fluoroquinolone-resistant, clinical isolate of E. coli and an MRSA strain that is also resistant to norfloxacin and ciprofloxacin (Table 1).",
  "data": [
    {"smiles": "CCn1cc(C(=O)NO)c(=O)c2cc(F)c(N3CCN(CN4C(=O)CCC4=O)CC3)cc21", "note": "[23a, 1-ethyl-6-fluoro-1,4-dihydro-N-hydroxy-4-oxo-7-(4-((2,5-dioxopyrrolidin-1-yl)methyl)piperazin-1-yl)quinoline-3-carboxamide]", "values": [
      {"measurement": "MIC", "result": 0.56, "unit": "µM"}
    ]},
    {"smiles": "CCn1cc(C(=O)NO)c(=O)c2cc(F)c(N3CCN(CN4CCOCC4)CC3)cc21", "note": "[20b]", "values": [
      {"measurement": "MIC", "result": 0.28, "unit": "µM"}
    ]},
    {"smiles": "CCn1cc(C(=O)NO)c(=O)c2cc(F)c(N3CCN(C)CC3)cc21", "note": "[11a]", "values": [
      {"measurement": "MIC", "result": 0.18, "unit": "µM"}
    ]},
    {"smiles": "CCn1cc(C(=O)O)c(=O)c2cc(F)c(N3CCN(CN4CCCCC4)CC3)cc21", "note": "[19a, 1-ethyl-6-fluoro-1,4-dihydro-4-oxo-7-(4-((piperidin-1-yl)methyl)piperazin-1-yl)quinoline-3-carboxylic acid]", "values": [
      {"measurement": "MIC", "result": 0.3, "unit": "µM"}
    ]},
    {"smiles": "CCn1cc(C(=O)O)c(=O)c2cc(F)c(N3CCN(CNc4ccc([N+](=O)[O-])cc4)CC3)cc21", "note": "[compound 25, 25]", "values": [
      {"measurement": "MIC", "result": 0.266, "unit": "µM"}
    ]},
    {"smiles": "CCCCCN1CCN(c2cc3c(cc2F)c(=O)c(C(=O)NO)cn3CC)CC1", "note": "[11d, 1-ethyl-6-fluoro-1,4-dihydro-N-hydroxy-7-(4-pentylpiperazin-1-yl)-4-oxoquinoline-3-carboxamide]", "values": [
      {"measurement": "MIC", "result": 0.3, "unit": "µM"}
    ]},
    {"smiles": "CCn1cc(C(=O)NO)c(=O)c2cc(F)c(N3CCN(Cc4ccc(Cl)cc4)CC3)cc21", "note": "[11f]", "values": [
      {"measurement": "MIC", "result": 1.08, "unit": "µM"}
    ]}
  ]
}
